Assay [1] concerns the target T1, Recombinant full-length human IDO1 (Homo sapiens, UniProt P14902).
T1 construct: Recombinant full-length human IDO1 with a N-terminal hexahistidine tag; hexahistidine (His6) (N); made in house; host or cells: E. coli
In words: IDO1 enzymatic assay (NFK quantified by LCMS). It counts as biochemical. To be noted: 2 nM enzyme, 5 μM L-tryptophan, pH6.5, 30 minutes pre-incubation at RT; mean values when measured multiple times; read-out: hIDO activity (IC50 in nM). The gist of the method: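 IC50 comes from four-parameter logistic fits of duplicate data, with NFK quantified by LCMS and normalized to L-Trp-(indole-d5). Compound (0.5 nM–10 μM) was preincubated 30 min at RT with 2 nM E. coli-expressed IDO1 before a 30 min reaction with 5 μM tryptophan in pH 6.5 buffer containing ascorbate and methylene blue.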

Assay [2] deals with T2, Recombinant human TDO comprising amino acids 19-407 (Homo sapiens, UniProt P48775).
T2 construct: Recombinant human TDO comprising amino acids 19-407 with a N-terminal hexahistidine tag; hexahistidine (His6) (N); made in house; host or cells: E. coli
T2 sequence (P48775 19-406 limits assumed): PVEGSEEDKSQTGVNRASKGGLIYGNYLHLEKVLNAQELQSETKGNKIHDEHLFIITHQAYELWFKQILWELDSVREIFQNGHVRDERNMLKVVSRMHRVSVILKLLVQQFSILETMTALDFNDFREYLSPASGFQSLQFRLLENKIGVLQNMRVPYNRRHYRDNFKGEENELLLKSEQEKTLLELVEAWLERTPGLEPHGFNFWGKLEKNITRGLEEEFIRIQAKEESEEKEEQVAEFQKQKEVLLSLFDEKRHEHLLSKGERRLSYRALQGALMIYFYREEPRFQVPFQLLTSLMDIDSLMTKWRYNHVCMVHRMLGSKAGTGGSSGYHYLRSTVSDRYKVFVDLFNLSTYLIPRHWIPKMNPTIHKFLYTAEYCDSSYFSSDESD
Nature of the assay: TDO2 enzymatic assay (NFK quantified by LCMS). The assay is classed as biochemical. To be noted: 15 nM enzyme, 200 μM L-tryptophan, pH7, 30 minutes pre-incubation at RT; mean values when measured multiple times; read-out: hTDO activity (IC50 in nM). The gist of the method:
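NFK formed over 30 min at RT from 200 μM L-tryptophan was measured by LCMS, normalized to d5-tryptophan, after compound (0.5 nM–10 μM, duplicates, 0.6% DMSO) was preincubated 30 min with 15 nM recombinant His-tagged TDO 19-407 in phosphate buffer pH 7. IC50 from four-parameter logistic fit; repeats averaged.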

T1 sequence (P14902 whole entry): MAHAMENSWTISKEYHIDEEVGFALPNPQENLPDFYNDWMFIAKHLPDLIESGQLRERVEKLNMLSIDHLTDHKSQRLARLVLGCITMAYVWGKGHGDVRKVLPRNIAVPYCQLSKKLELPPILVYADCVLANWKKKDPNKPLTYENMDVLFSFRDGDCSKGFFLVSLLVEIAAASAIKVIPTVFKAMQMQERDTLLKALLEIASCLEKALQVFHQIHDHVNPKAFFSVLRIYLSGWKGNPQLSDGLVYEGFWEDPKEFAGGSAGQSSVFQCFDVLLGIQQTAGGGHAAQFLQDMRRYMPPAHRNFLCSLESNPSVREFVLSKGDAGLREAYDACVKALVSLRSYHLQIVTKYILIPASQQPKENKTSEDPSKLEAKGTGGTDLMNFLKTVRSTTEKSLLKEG

As usually defined, the IC50 is the midpoint of a concentration-inhibition curve. On to `CCc1sc2cncn2c1C(O)c1cn(-c2ccc(C(=O)NCc3ccco3)cc2)nn1` (racemic) [Example 123, rac-4-{4-[(2-Ethyl-imidazo[5,1-b]thiazol-3-yl)-hydroxy-methyl]-[1,2,3]triazol-1-yl}-N-furan-2-ylmethyl-benzamide], for which the IC50 in assay [1] came out at 8.09 nM; in assay [2], 6770 nM.

Consider `CCc1sc2cncn2c1C(O)c1cn(-c2ccc(S(N)(=O)=O)cc2)nn1` (racemic) [Example 240, rac-4-{4-[(2-Ethyl-imidazo[5,1-b]thiazol-3-yl)-hydroxy-methyl]-[1,2,3]triazol-1-yl}-benzenesulfonamide], for which the figures for the IC50 in assay [1] and in assay [2] were 28.3 nM and 7480 nM, respectively.

On to `CC(C)(O)CCOc1ccc(-n2cc(C(O)c3c(C4(C)CC4)sc4cncn34)nn2)cc1Cl` (racemic) [Example 303, rac-4-[2-Chloro-4-(4-{hydroxy-[2-(1-methyl-cyclopropyl)-imidazo[5,1-b]thiazol-3-yl]-methyl}-[1,2,3]triazol-1-yl)-phenoxy]-2-methyl-butan-2-ol], for which the IC50 in assay [1] is 23.6 nM; in assay [2], greater than 10200 nM.

For the molecule `COc1ccc(-n2cc([C@H](O)c3c(C4CC4)sc4cncn34)nn2)cc1` [Example 9a, (R)-(2-Cyclopropyl-imidazo[5,1-b]thiazol-3-yl)-[1-(4-methoxy-phenyl)-1H-[1,2,3]triazol-4-yl]-methanol], the IC50 in assay [1] was 5.98 nM; in assay [2], greater than 10200 nM.

Turning to `COCCOc1ccc(-n2cc(C(O)c3c(C4CC4)sc4cncn34)nn2)cc1` (racemic) [Example 91, rac-(2-Cyclopropyl-imidazo[5,1-b]thiazol-3-yl)-{1-[4-(2-methoxy-ethoxy)-phenyl]-1H-[1,2,3]triazol-4-yl}-methanol], the concentration for half-maximal inhibition (IC50) in assay [1] was 12.9 nM; in assay [2] it was greater than 10200 nM.

As to `CC(C)Oc1ccc(-n2cc(C(O)c3c(C4CC4)sc4cncn34)nn2)cc1` (racemic) [Example 33, rac-(2-Cyclopropyl-imidazo[5,1-b]thiazol-3-yl)-[1-(4-isopropoxy-phenyl)-1H-[1,2,3]triazol-4-yl]-methanol], the half-maximal inhibitory concentration (IC50) was 20 nM in assay [1] and greater than 10200 nM in assay [2].

Consider `CCc1sc2cncn2c1C(O)c1cn(-c2ccc3[nH]c(=O)oc3c2)nn1` (racemic) [Example 181, rac-6-{4-[(2-Ethyl-imidazo[5,1-b]thiazol-3-yl)-hydroxy-methyl]-[1,2,3]triazol-1-yl}-3H-benzooxazol-2-one], for which the IC50 in assay [1] is 7.86 nM; in assay [2] it was 4330 nM.

Consider `CC(F)(F)c1sc2cncn2c1C(O)c1cn(-c2ccc(OCC3(F)COC3)c(Cl)c2)nn1` (racemic) [Example 316, rac-{1-[3-Chloro-4-(3-fluoro-oxetan-3-ylmethoxy)-phenyl]-1H-[1,2,3]triazol-4-yl}-[2-(1,1-difluoro-ethyl)-imidazo[5,1-b]thiazol-3-yl]-methanol], for which the half-inhibitory concentration (IC50) in assay [1] was 13 nM; in assay [2] it was greater than 10200 nM.

On to `COc1cc(C#N)cc(-n2cc(C(O)c3c(C4CC4)sc4cncn34)nn2)c1` (racemic) [Example 197, rac-3-{4-[(2-Cyclopropyl-imidazo[5,1-b]thiazol-3-yl)-hydroxy-methyl]-[1,2,3]triazol-1-yl}-5-methoxy-benzonitrile], for which the IC50 in assay [1] is 52.4 nM; in assay [2], greater than 10200 nM.

With `C=C(C)c1sc2cncn2c1C(O)c1cn(-c2ccc(OCC3(F)COC3)c(Cl)c2)nn1` (racemic) [Example 299, rac-{1-[3-Chloro-4-(3-fluoro-oxetan-3-ylmethoxy)-phenyl]-1H-[1,2,3]triazol-4-yl}-(2-isopropenyl-imidazo[5,1-b]thiazol-3-yl)-methanol], the values for the IC50 in assay [1] and in assay [2] were 34.8 nM and greater than 10200 nM, respectively.

`CCOc1ccc(-n2cc(C(O)c3c(C4CC4)sc4cncn34)nn2)cn1` (racemic) [Example 42, rac-(2-Cyclopropyl-imidazo[5,1-b]thiazol-3-yl)-[1-(6-ethoxy-pyridin-3-yl)-1H-[1,2,3]triazol-4-yl]-methanol]: the half-maximal inhibitory concentration (IC50) in assay [1] was 20.2 nM; in assay [2] it was greater than 10200 nM.

For the molecule `COc1ccc(-c2ccc(C(O)c3c(C4CC4)sc4cncn34)s2)cc1` (racemic) [Example 161, rac-(2-Cyclopropyl-imidazo[5,1-b]thiazol-3-yl)-[5-(4-methoxy-phenyl)-thiophen-2-yl]-methanol], the IC50 in assay [1] is 257 nM; in assay [2], greater than 10200 nM.

`COC(=O)c1cccc(Cn2cc(C(O)c3c(C4CC4)sc4cncn34)nn2)c1` (racemic) [Example 294, rac-3-{4-[(2-Cyclopropyl-imidazo[5,1-b]thiazol-3-yl)-hydroxy-methyl]-[1,2,3]triazol-1-ylmethyl}-benzoic acid methyl ester]: the figures for the IC50 in assay [1] and in assay [2] were 35.8 nM and greater than 10200 nM, respectively.

Take `COc1ccc(-n2cc(C(O)c3c(C4CC4)sc4cncn34)nn2)cc1Cl` (racemic) [Example 289, rac-[1-(3-Chloro-4-methoxy-phenyl)-1H-[1,2,3]triazol-4-yl]-(2-cyclopropyl-imidazo[5,1-b]thiazol-3-yl)-methanol]: the IC50 in assay [1] is 7.56 nM; in assay [2], greater than 10200 nM.

For `CCOc1ccc(-n2cc(C(O)c3c(C4CC4)sc4cncn34)nn2)cc1` (racemic) [Example 32, rac-(2-Cyclopropyl-imidazo[5,1-b]thiazol-3-yl)-[1-(4-ethoxy-phenyl)-1H-[1,2,3]triazol-4-yl]-methanol], the IC50 in assay [1] was 5.3 nM; in assay [2] it was greater than 10200 nM.

On to `CCc1c(C(O)c2c(C3CC3)sc3cncn23)nnn1-c1ccc(OC)cc1` (racemic) [Example 279, rac-(2-Cyclopropyl-imidazo[5,1-b]thiazol-3-yl)-[5-ethyl-1-(4-methoxy-phenyl)-1H-[1,2,3]triazol-4-yl]-methanol], for which the half-inhibitory concentration (IC50) in assay [1] is 13.6 nM; in assay [2], greater than 10200 nM.

In the case of `OC[C@H](O)COc1ccc(-n2cc(C(O)c3c(C4CC4)sc4cncn34)nn2)cc1` (mixture of isomers) [Example 202, (S)-3-(4-{4-[(R)-(2-Cyclopropyl-imidazo[5,1-b]thiazol-3-yl)-hydroxy-methyl]-[1,2,3]triazol-1-yl}-phenoxy)-propane-1,2-diol and (S)-3-(4-{4-[(S)-(2-Cyclopropyl-imidazo[5,1-b]thiazol-3-yl)-hydroxy-methyl]-[1,2,3]triazol-1-yl}-phenoxy)-propane-1,2-diol], the IC50 in assay [1] is 15 nM; in assay [2] it was greater than 10200 nM.

On to `CC(=O)c1ccc(-n2cc(C(O)c3c(C4CC4)sc4cncn34)nn2)cc1` (racemic) [Example 10, rac-1-(4-{4-[(2-Cyclopropyl-imidazo[5,1-b]thiazol-3-yl)-hydroxy-methyl]-[1,2,3]triazol-1-yl}-phenyl)-ethanone], for which the IC50 is 18.4 nM in assay [1] and greater than 10200 nM in assay [2].

As for `CC(F)(F)c1sc2cncn2c1C(O)c1cn(-c2ccc(O)c(Cl)c2)nn1` (racemic) [Example 329, rac-2-Chloro-4-(4-{[2-(1,1-difluoro-ethyl)-imidazo[5,1-b]thiazol-3-yl]-hydroxy-methyl}-[1,2,3]triazol-1-yl)-phenol], the IC50 in assay [1] is 2.49 nM; in assay [2], 9930 nM.

Take `OC(c1cn(-c2cccc3ccncc23)nn1)c1c(C2CC2)sc2cncn12` (racemic) [Example 22, rac-(2-Cyclopropyl-imidazo[5,1-b]thiazol-3-yl)-(1-isoquinolin-8-yl-1H-[1,2,3]triazol-4-yl)-methanol]: the IC50 is 39.6 nM in assay [1] and greater than 10200 nM in assay [2].

Turning to `OC(c1cn(-c2cccc(C(F)(F)F)c2)nn1)c1c(C2CC2)sc2cncn12` (racemic) [Example 5, rac-(2-Cyclopropyl-imidazo[5,1-b]thiazol-3-yl)-[1-(3-trifluoromethyl-phenyl)-1H-[1,2,3]triazol-4-yl]-methanol], the results for the IC50 in assay [1] and in assay [2] were 74.2 nM and greater than 10200 nM, respectively.

`OC(c1cn(-c2ccc(OCC3CCCCO3)cc2)nn1)c1c(C2CC2)sc2cncn12` (centres unmarked) [Example 143, (2-Cyclopropyl-imidazo[5,1-b]thiazol-3-yl)-{1-[4-(tetrahydro-pyran-2-ylmethoxy)-phenyl]-1H-[1,2,3]triazol-4-yl}-methanol]: the IC50 is 18.1 nM in assay [1] and greater than 10200 nM in assay [2].

On to `Oc1ccc(-n2cc(C(O)c3c([C@@H]4C[C@H]4F)sc4cncn34)nn2)cc1Cl` (relative stereo) [Example 328, 2-Chloro-4-(4-{[2-(trans-2-fluoro-cyclopropyl)-imidazo[5,1-b]thiazol-3-yl]-hydroxy-methyl}-[1,2,3]triazol-1-yl)-phenol], for which the IC50 in assay [1] is 13.1 nM; in assay [2] it was greater than 10200 nM.

`OC(c1cn(-c2cccnc2)nn1)c1c(C2CC2)sc2cncn12` (racemic) [Example 15, rac-(2-Cyclopropyl-imidazo[5,1-b]thiazol-3-yl)-(1-pyridin-3-yl-1H-[1,2,3]triazol-4-yl)-methanol]: the IC50 in assay [1] was 95.8 nM; in assay [2], greater than 10200 nM.

`CC1(c2sc3cncn3c2C(O)c2cn(-c3ccc(OCC4(F)COC4)c(Cl)c3)nn2)CC1` (racemic) [Example 315, rac-{1-[3-Chloro-4-(3-fluoro-oxetan-3-ylmethoxy)-phenyl]-1H-[1,2,3]triazol-4-yl}-[2-(1-methyl-cyclopropyl)-imidazo[5,1-b]thiazol-3-yl]-methanol]: the IC50 in assay [1] was 19.5 nM; in assay [2] it was greater than 10200 nM.

The record behind these values is patent US20200405696A1, “INHIBITORS OF INDOLEAMINE 2,3-DIOXYGENASE AND/OR TRYPTOPHAN 2,3-DIOXYGENASE” (IDORSIA PHARMACEUTICALS LTD, priority 2018, published 2020).
